Test results from article PMC10135378, “Synthesis of Novel N-Heterocyclic Carbene-Ruthenium (II) Complexes, “Precious” Tools with Antibacterial, Anticancer and Antioxidant Properties” (Antibiotics, 2023).

What was measured:
[1] = tested on: MCF-10A cells; assay: MTT assay, non-tumoral MCF-10A cells; assay type: cell-based, human; conditions: 72 h exposure
From the text: Additionally, we investigated the selectivity of all the synthesized Ru-NHC complexes on the cancer cells by studying their capability to interfere with the growth of two non-tumoral cells, namely the MCF-10A and BALB/3T3 cells.
The adopted cells (breast cancer MCF-7 and MDA-MB-231 and human mammary epithelial MCF-10A cells) were purchased from American Type Culture Collection (ATCC, Manassas, VA, USA) and cultured as indicated. The mouse embryonic fibroblast BALB/3T3 and neuroblastoma SH-SY5Y were also obtained from American Type Culture Collection (ATCC, Manassas, VA, USA) and cultured in DMEM high glucose supplemented with 100 U mL^−1 penicillin/streptomycin and 10% bovine calf serum (BCS) or 10% fetal bovine serum (FBS), respectively.
MTT assay (Sigma Aldrich (St. Louis, MO, USA)) was used for the in vitro anticancer activity evaluation, as previously reported. The Ru-NHC complexes were employed at different concentrations (0.1–1–10–25–50–100 μM) for 72 h. The IC50 values were calculated from the percent (%) of control using GraphPad Prism 9 (GraphPad Software, La Jolla, CA, USA).

[2] = tested on: Enterococcus faecalis (ATCC 19433); assay: MIC/MBC broth dilution, E. faecalis; assay type: cell-based; conditions: broth dilution, 37 °C, 18 h
Experimental: (§1) One Gram-negative (Escherichia coli (ATCC® 25922TM)) and two Gram-positive bacterial strains (Enterococcus faecalis (ATCC® 19433TM) and Staphylococcus aureus (ATCC® 23235TM)] were used for MIC and MBC values determination, according to CLSI guidelines. MIC represents the lowest concentration of compound inhibiting the visible microbial growth and expressed as μg/mL; MBC is the lowest concentration able to kill the bacteria. Both determinations were performed by the broth dilution method. Bacteria were grown overnight in LB medium (2%), then diluted to a density of […] colony forming units (CFUs) per mL, plated in sterile 96-well microplates, obtaining about 10^5 cells/ well. Increasing concentrations of the Ru-NHC complexes (1, 10, 25, 50, 70, 100 µg/mL) were used. After incubation at 37 °C for 18 h (overnight), bacterial growth was checked at a wavelength of 600 nm using a Multiskan spectrophotometer (model Multiskan Ex Microplate; Thermo Scientific, Nyon, Switzerland) and MIC or MBC values were determined, comparing cell density with a positive control (bacterial cells grown in LB medium were added with only the vehicle, DMSO). Each experiment was carried out five times, in triplicate. Ampicillin (Sigma Aldrich A9393) was used as the control for strain sensitivity.

[3] = tested on: Staphylococcus aureus (ATCC 23235); assay: MIC/MBC broth dilution, S. aureus; assay type: cell-based; conditions: broth dilution, 37 °C, 18 h
Experimental: as §1

[4] = Conductivity measurements (hydrolytic stability); assay type: physicochemical; conditions: DMSO/H2O 90/10, solutions about 10^−3 M, room temperature
Experimental: The proposed structures and hydrolytic stability were supported by conductivity measurements (solutions about 10^−3 M); in fact, the conductance values for the Ru compounds I, IV, V, and VI determined in DMSO/H2O 90/10 are substantially independent of the concentration, which is close to zero. […] This was attributed to the presence of a small amount of sodium iodide in the sample (about 10 mol%).
The NMR spectra were recorded on a Bruker AM 250 spectrometer (250 MHz for ^1H; 62.5 MHz for ^13C), a Bruker AM 300 spectrometer (300 MHz for ^1H; 75 MHz for ^13C), and a Bruker AVANCE 400 spectrometer (400 MHz for ^1H; 100 MHz for ^13C; 161.97 MHz for ^31P; 376 MHz for ^19F). NMR samples were prepared by solubilizing about 15 mg of compound in 0.5 mL of deuterated solvent. The ^1H and ^13C NMR chemical shifts are referenced to SiMe4 (δ = 0 ppm) using the residual proton impurities of the deuterated solvents as internal standards. ^1H NMR spectra are referenced using the residual solvent peak δ 2.50 for DMSO-d6 and δ 7.27 for CDCl3. ^13C NMR spectra are referenced using the residual solvent peak at δ 39.51 for DMSO-d6 and δ 77.23 for CDCl3. Multiplicities are abbreviated as follows: singlet (s), doublet (d), triplet (t), multiplet (m), doublet of doublets (dd), broad (br), and overlapped (o). Elemental analysis was conducted using a PERKIN-Elmer 240-C analyzer. ESI-MS measurements were performed on a Waters Quattro Micro triple quadrupole mass spectrometer, equipped with an electrospray ion source. MALDI-MS mass spectra were achieved by a Bruker SolariX XR Fourier transform ion cyclotron resonance mass spectrometer (Bruker Daltonik GmbH, Bremen, Germany) with a 7 T refrigerated actively shielded superconducting magnet (Bruker Biospin, Wissembourg, France). MALDI ion source (Bruker Daltonik GmbH, Bremen, Germany) was used in the samples in positive ion mode. The mass range was set to m/z 200–3000. The laser power was 28% and 22 laser shots were utilized for each scan. The mass spectra were calibrated externally using a mix of peptide clusters in MALDI ionization positive ion mode. A linear calibration was applied. The molar conductance of the ruthenium complexes was measured at room temperature by a Metrohm 712 Conductometer using freshly prepared 10^−3 M solutions in DMSO/H2O 90/10 solvent.

[5] = DPPH radical scavenging assay; conditions: 30 min, room temperature, 517 nm
Experimental: Generally, the DPPH radical is able to accept hydrogen radicals or an electron, turning into a stable molecule. The interaction with Ru-NHC complexes induces the reduction of DPPH radical intensity measured at 517 nm, due to the conversion of the purple DPPH radical into its corresponding yellow hydrazine form.
The radical scavenging properties of Ru-NHC complexes on the 1,1-diphenyl-2-picryl-hydrazil (DPPH) radical were evaluated as described by Fazio et al., with minor corrections. Then, 20 μL of each Ru complex, properly dissolved in DMSO, were mixed with methanol DPPH 0.1 mM (180 μL) in a 48-well plate obtaining […] different concentrations (10, 50, 100, 200 and 300 µg/mL). Next, 20 μL of DMSO in 180 μL of DPPH methanol solution was diluted as the control. The mixture was vigorously shaken and incubated (room temperature, 30 min, in the dark). The scavenging activity was measured at 517 nm, using a microplate reader. DPPH radical scavenging was expressed as inhibition percentages (%IDPPH) for the Ru complexes compared to the initial concentration of DPPH (control) according to the formula: %IDPPH=A0−A/A0×100 where A0 is the absorbance at 517 nm of the control reaction and A is the absorbance at 517 nm in the presence of samples.
The obtained IDPPH percentages allowed the IC50 values determination, using GraphPad Prism 9 software (GraphPad Inc., San Diego, CA, USA). Trolox was employed as a positive control.

Row | Structure (SMILES) | conductivity [4] | IC50 [5] [µM] | IC50 [1] [µM] | M.I.C. E. faecalis [2] [µg/mL] | M.I.C. S. aureus [3] [µg/mL]
1 | CN1C=CN2CC(c3ccccc3)[O+](C)[Ru]([Cl])=[C]12.Cc1ccc(C(C)C)cc1.F[P-](F)(F)(F)(F)F (stereo not drawn) [RANHC-III] | 6.3–25.6 μS cm^−1 | 44.2 ± 1.2 | > 100 | 50 | 25
2 | COC(Cn1c(Cl)c(Cl)n(C)[c]1=[Ru]([Cl])[Cl])c1ccccc1.Cc1ccc(C(C)C)cc1 (stereo not drawn) [RANHC-V] | close to zero | 246.2 ± 1.2 | 79.5 ± 1.2 | 70 | 25
3 | COC(Cn1[c](=[Ru]([Cl])[Cl])n(C)c2ccccc21)c1ccccc1.Cc1ccc(C(C)C)cc1 (stereo not drawn) [RANHC-VI] | close to zero | 161.6 ± 1 | 90.7 ± 1.2 | 50 | 25
4 | COC(Cn1ccn(C)[c]1=[Ru]([I])[I])c1ccccc1.Cc1ccc(C(C)C)cc1 (stereo not drawn) [RANHC-II] | 13.1–44.2 μS cm^−1 | 214.8 ± 1.1 | > 100 | 50 | 25

The next lines start with results.

Row | conductivity [4] | IC50 [5] [µM] | Structure (SMILES) | IC50 [1] [µM] | M.I.C. E. faecalis [2] [µg/mL] | M.I.C. S. aureus [3] [µg/mL]
5 | close to zero | 369.6 ± 1.1 | COC(Cn1ccn(C)[c]1=[Ru]([Cl])[Cl])c1ccccc1.Cc1ccc(C(C)C)cc1 (stereo not drawn) [RANHC-I] | > 100 | 50 | 25
6 | close to zero | 512.3 ± 0.8 | COC(Cn1ccn(C)[c]1=[Ru]1[O]C(=O)C(=O)[O]1)c1ccccc1.Cc1ccc(C(C)C)cc1 (stereo not drawn) [RANHC-IV] | > 100 | 50 | 25
